Measured values as given in PMC8835475, “Salviolone from Salvia miltiorrhiza Roots Impairs Cell Cycle Progression, Colony Formation, and Metalloproteinase-2 Activity in A375 Melanoma Cells: Involvement of P21(Cip1/Waf1) Expression and STAT3 Phosphorylation” (International Journal of Molecular Sciences, 2022).
Values belong to the compound of their own block, whether it stands above or below them.

What was measured:
Format in all cases: cell-based, human
A375 melanoma cell line = experiment: SRB cell viability assay in A375 cells; details: for EC50: Homo sapiens, A-375, read-out: half maximal effective concentration (EC50) able to reduce cell viability; for EC50 / effect on cell viability / A375 cell viability, inhibitor administered alone: A375, SRB, 72 h; for effect on cell viability: at least until 40 µM; for potentiation of the decrease of A375 cell viability induced by 20 µM salviolone or cryptotanshinone: 10 µM inhibitor added 2 h before the diterpene; for A375 cell viability, inhibitor administered alone: concentration-dependent
Description: (§1) In preliminary experiments, the evaluation of cell viability at different time after compound administration was carried out with sulforhodamine B (SRB) assay. Indeed, after 24-, 48-, and 72-h treatment, an evident time dependence in the inhibition of cell growth was registered (data not shown). Thus, to evaluate A375 and MeWo cell viability, we decided to perform further SRB experiments with each compound only after 72 h.
(§2) Human MeWo (HTB-65) and A375 (CRL-1619) melanoma cell lines as well as the normal human epidermal melanocyte (NHEM) (PCS-200-013) cell line (ATCC, Manassas, VA, USA) were cultured at 37 °C under 5% CO2 in a humidified atmosphere. Roswell Park Memorial Institute 1640 medium (RPMI, Gibco, Ref.21875, Thermo Scientific, Waltham, MA, USA) was used to culture MeWo cells, while Dulbecco’s Modified Eagle Medium (DMEM, Gibco, Ref. 61965, Thermo Scientific, Waltham, MA, USA) was used for A375 and NHEM cell lines. The culture media were supplemented with 10% fetal bovine serum (FBS, Gibco, Thermo Scientific, Waltham, MA, USA) plus 1% Antibiotic Antimycotic Solution (Gibco, Thermo Scientific). The MEK1 inhibitor U0126 (CAY-70970) and the PI3K inhibitor LY294002 (CAY-70920) were provided by Cayman Chemical, Ann Arbor, MI, USA.
(§3) Melanoma MeWo and A375 cells or NHEM were seeded in 96-well plates (5.0 × 10^3 cells/well for MeWo cells and 2.9 × 10^3 cells/well for A375 or NHEM). After 24-h culture, the cells were treated with different concentrations of compounds 1–7. After 72-h treatment, the cells were fixed by adding 25 µL/well of 50% (w/v) TCA directly into the culture medium. The plates were incubated at 4 °C for 1 h, washed four times with ddH2O, and dried at RT. Staining was performed by adding 50 µL/well of 0.04% (w/v) sulforhodamine B (SRB) sodium salt solution (Sigma-Aldrich, Milan, Italy). After 1-h incubation at RT, the plates were rinsed with 1% HAc and air-dried. SRB was solubilized in a 10 mM Tris-base solution pH 10.5 and Abs492 measured in the plate reader TECAN NanoQuant Infinite M200 Pro (Tecan Group Ltd., Männedorf, Switzerland). Six replicates for each condition/data point were performed.

MeWo melanoma cell line = experiment: SRB cell viability assay in MeWo cells; details: SRB, 72 h; for EC50: Homo sapiens, read-out: EC50 useful in diminishing cell viability; for effect on cell viability: at least until 40 µM
Description: as §1, §2, §3

pERK1/2 = experiment: Immunoblot of pERK1/2 in A375 cells; details: 10 µM U0126 with compound 4 or 7 at 20 µM
Description: (§4) A375 cells were seeded in 6 cm Petri dishes (190 300 cell/dish) and treated with different compounds at 10 or 20 μM. After 48- or 72-h treatment, the cells were scraped using warm 1× sample buffer (2% SDS, 10% glycerol, 50 mM Tris-HCl, 1.75% β-mercaptoethanol, and bromophenol blue) and boiled at 99 °C for 10 min. Total protein extracts were kept at −80 °C until use.
(§5) Protein extracts were analyzed with a 7.5 or 10% polyacrylamide SDS-PAGE and transferred to a polyvinylidene difluoride membrane (PVDF, Thermo Fisher Scientific, Waltham, MA, USA). The membranes were blocked at RT for 1 h with TBST buffer (10 mM Tris-HCl pH 7.5, 100 mM NaCl, 0.1% Tween20) containing 4% Milk (Formulat). Then, they were incubated on a shaker, overnight (ON) at 4 °C, with 5% BSA solution containing primary antibodies against p-Tyr705-STAT3 (#9145, 1:1000), pRb (#8516, 1:2000), pERK (#4370, 1:1000), pAkt (#4060, 1:2000), pSer15-P53 (#9286, 1:2000) (Cell Signaling Technology, Danvers, […], USA), Akt (GTX121937, 1:3000), ERK (GTX134452, 1:6000), Cyclin A2 (GTX-103042, 1:3000), p-Thr160Cdk2 (GTX-133862, 1:3000), p21 (GTX-629543, 1:3000) (Genetex, Alton Pkwj Irvine, CA, USA), p53 (Sc-263, 1:1000), STAT3 (Sc-482, 1:1000), and p-Ser727-STAT3 (Sc-136193, 1:1000) (Santa Cruz Biotechnology, Dallas, TX, USA). The membranes were washed three times with TBST buffer for 30 min and then incubated for 1 h with a horseradish-peroxidase-conjugated secondary antibody (anti-rabbit 1:6000, Genetex), (anti-mouse, 1:4000, Cell Signaling Technology, Danvers, […], USA). They were washed another three times for 30 min with TBST buffer. All protein extracts were normalized with a β-actin protein antibody (GTX-124214, 1:10,000; Genetex, Alton Pkwj Irvine, CA, USA). Immuno-detection was carried out with an ECL kit (GE-Healthcare, Little Chalfont, UK), and the chemiluminescence signals were detected with ChemiDoc (Bio-Rad, Hercules, CA, USA).

pAkt = experiment: Immunoblot of pAkt in A375 cells; details: 10 µM LY294002 with compound 7 or 4 at 20 µM
Description: as §4, §5

EC50 (A375 melanoma cell line): ~1 µM
EC50 (MeWo melanoma cell line): 2 µM
Structure (SMILES): Cc1coc2c1C(=O)C(=O)c1c-2ccc2c1CCCC2(C)C [Compound 1, tanshinone IIA]

Structure (SMILES): Cc1coc2c1C(=O)C(=O)c1c-2ccc2c1[C@@H](O)CCC2(C)C [Compound 2, 1α-hydroxytanshinone]
effect on cell viability (A375 melanoma cell line): ineffective
effect on cell viability (MeWo melanoma cell line): ineffective

Structure (SMILES): Cc1coc2c1C(=O)C(=O)c1c-2ccc2c1C(=O)CCC2(C)C [Compound 3, 1-oxotanshinone]
effect on cell viability (A375 melanoma cell line): ineffective
effect on cell viability (MeWo melanoma cell line): ineffective

EC50 (A375 melanoma cell line): ~42 µM
EC50 (MeWo melanoma cell line): 45 µM
Structure (SMILES): C[C@H]1COC2=C1C(=O)C(=O)c1c2ccc2c1[C@H](O)CCC2(C)C [Compound 5, 1β-hydroxycryptotanshinone]
activity rating for inhibition of melanoma cell viability (A375 melanoma cell line; A375 and MeWo, SRB): poorly active

Structure (SMILES): CC1COc2c1c(=O)oc(=O)c1c3c(ccc21)C(C)(C)CCC3O (stereo not drawn) [Compound 6, 1α-hydroxyanhydride-16R-cryptotanshinone]
effect on cell viability (A375 melanoma cell line): ineffective
effect on cell viability (MeWo melanoma cell line): ineffective

Structure (SMILES): N#CC(=C(/N)Sc1ccccc1N)/C(C#N)=C(/N)Sc1ccccc1N [Compound U0126, reference compound]
potentiation of the decrease of A375 cell viability induced by 20 µM salviolone or cryptotanshinone (A375 melanoma cell line): did not potentiate
A375 cell viability, inhibitor administered alone (A375 melanoma cell line): inhibited
pERK1/2 expression level on co-administration (pERK1/2): strongly inhibited

Structure (SMILES): O=c1cc(N2CCOCC2)oc2c(-c3ccccc3)cccc12 [LY294002, reference compound]
potentiation of the decrease of A375 cell viability induced by 20 µM salviolone or cryptotanshinone (A375 melanoma cell line): did not potentiate
A375 cell viability, inhibitor administered alone (A375 melanoma cell line): inhibited
pAkt expression level on co-administration (pAkt): inhibition
